Test system: turf (perennial rye grass, fescue, crabgrass, and several unidentified broad-leaf weeds)
Experiment: Field test plots: rate of control of turf by ready to use glyphosate composition with fatty acid additive
Format: in vivo
Details: versus the same compositions without (water control) short chain fatty acid
Method: This composition included all of the water necessary to apply for weed control and was not further diluted.
The test plots included several species including perennial rye grass, fescue, crabgrass, and several unidentified broad-leaf weeds. As this is a non-selective test, all growing plants (monocot and broadleaf) were evaluated as one species referred to as “turf.” Test plots were 4-ft by 60 ft rectangles with untreated check plots to either side. Evaluations were made at 3 days, 7 days and 14 days by visually inspecting each plot comparing health and vigor of turf (color and mortality) to adjacent untreated controls.

CC(O)C(=O)O (stereo not shown) [Lactic acid, lactic acid]
enhancing the rate of weed control in herbicide compositions: particularly effective
